IC50 data for two molecules are collected here from patent US10233152B2, “LSD1 inhibitors” (Mirati Therapeutics, Inc., priority 2015, dated 2019).

The test system of experiment [1] is MV4-11 cells. The experiment in a line: Inhibition of LSD1-mediated cell proliferation, CellTiter Glo luminescence assay. The settings on record: Homo sapiens, MV4-11, 168 h, read-out: Inhibition of LSD1-mediated Cell Proliferation IC50. For orientation: Cellular ATP, detected with luciferase, serves as a proxy for viable cell number.
Experimental: Inhibition of LSD1-mediated cellular proliferation by compounds of Formula (I) or Formula (II) was measured in a CellTiter Glo luminescence assay (Promega Corp), which determines the number of viable cells by quantitating the amount of ATP, using a BMG LabTech CLARIOStar instrument in accordance with the manufacturer's instructions. […] The plates were incubated at 37° C. for four days and thereafter 50 μl fresh medium containing the same concentration of test compound was added. The plates were incubated for an additional three days (Day 7). A baseline measurement, as described below, was taken for a time zero point at Day 0.
At Day 7, the supernatant was removed by aspiration and the plate was allowed to equilibrate to room temperature (˜15 min). The cells were lysed using 45 μl (30 μl for Day 0) of Cell Titer Glo reagent (Promega Corp). The plates were shaken for two minutes and incubated at room temperature for 30 minutes. The degree of inhibition of cell viability was determined using a spectrophotometric readout by measuring the luminescence at 340 nm and the EC50 concentration for each compound was calculated using Graph Pad Prism 4 software.
The target of experiment [2] is purified N-terminal truncated human LSD1 enzyme (aa 151-852) (Homo sapiens (Human), UniProt O60341). Put plainly: LSD1 fluorescence coupling enzymatic assay (horseradish peroxidase/Amplex Red). Type of experiment: biochemical. The settings on record: 50 nM LSD1, 30 min pre-incubation, histone 3.3 peptide (aa 1-21), 10-point dose-response; read-out: Inhibition of LSD1 Activity IC50.
Experimental: Briefly, compounds of the present invention were solubilized in DMSO and a series of 10, three-fold serial dilutions were made for each compound in 15% DMSO. The initial starting concentration for the serial dilutions of each compound was 10 μM.
An aliquot of each serial dilution of test compound was added to a 96 well plate containing 50 nM purified N-truncated LSD1 enzyme (RBC Cat# PDM-11-350), 50 mM Tris-HCl, pH 7.5, 0.05% CHAPS and 1% DMSO in a 10 microliter reaction volume. The plate was pre-incubated at room temperature for 30 min to which 10 M of histone 3.3 peptide (aa 1-21) was added to initiate the enzymatic reaction. The reaction mixture was incubated at room temperature for one hour. […] The IC50 value for each compound was determined from each 10-point dose-response curve using GraphPad Prism 4 software with a sigmodial dose response.

Where only a bound is given, the exact number is not on record here.

Take `C[N+]1(CCOc2ccc(CC(=O)NS(C)(=O)=O)cc2)CC(CN[C@@H]2C[C@H]2c2ccccc2)C1` (stereo partly drawn) [Example 98]: the IC50 in experiment [1] is greater than 1000 nM.

Turning to `Brc1ccc(NCCN2CCC(N[C@@H]3C[C@H]3c3ccccc3)CC2)cc1` [Example 33, 1-(2-((4-bromophenyl)amino)ethyl)-N-((1R,2S)-2-phenylcyclopropyl)piperidin-4-amine], the IC50 in experiment [2] and in experiment [1] was less than 1 nM throughout.
